According to patent US11697650B2, “Compounds having tetrahydroindolizine-1-carboxamide as BCL-2 inhibitors” (Eil Therapeutics, Inc., priority 2021, dated 2023):

Columns and labels:
[1] = Cell viability assay (CellTiter-Glo), HEK293; assay type: cell-based; settings: human, HEK293 cells, read-out: HEK293 (CC50 code)
In short: (§1)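 HEK293 cells in DMEM at 2000/well, plated a day before dosing; RS4-11 and MOLT-4 in RPMI-1640 at 4000/well. Compounds diluted from 200× DMSO stocks through medium into wells, then incubated 3 days at 37 °C. Viability read by CellTiter-Glo luminescence.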

MCL-1 = MCL-1 (Homo sapiens (Human), UniProt Q07820); test: MCL-1 TR-FRET Assay (primary PPI inhibition); assay type: binding; settings: 60 min incubation; read-out: MCL1 IC50
Method: MCL-1 TR-FRET Assay (BPS Bioscience, #79506)
The following assay concentrations and times were used: 10 ng MCL-1, 5 μl of 1:200 anti-His Tb-labeled donor, 5 μl of 1:200 Dye-labeled acceptor, 5 μl of 1:10 MCL-1 Peptide Ligand, and 2 μl of test compound, with 60 min incubation time. The results of the assay were read using a Clariostar (BMG Labtech) plate reader with the following parameters: TR FRET, 340ex/620 and 665em; 60 μsec Delay; and 500 μsec integration.

BCL-XL = BCL-XL (Homo sapiens (Human), UniProt Q07817); test: BCL-XL TR-FRET Assay (primary PPI inhibition); assay type: binding; settings: 60 min incubation; read-out: BCLxL (IC50 code, BCL-XL TR-FRET)
In short: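 TR-FRET displacement of a dye-labelled BCL-XL peptide ligand from His-tagged BCL-XL (10.5 ng) detected with a Tb-labelled anti-His donor. Incubation ran 60 min with test compound. Readout used 340 nm excitation and 620/665 nm emission with a 60 µs delay.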

RS4-11 cells = test: Cell viability assay (CellTiter-Glo), RS4-11; assay type: cell-based; settings: Homo sapiens, 72 h, 3 days, read-out: RS4-11 (CC50 code)
In short: as §1

BCL-2 = BCL-2 (Homo sapiens (Human), UniProt P10415); test: BCL-2 TR-FRET Assay (primary PPI inhibition); assay type: binding; settings: 60 min incubation; read-out: BCL2 (IC50 code, BCL-2 TR-FRET)
In short: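 Mixture of 3 ng BCL-2, anti-His Tb donor, dye-labeled acceptor and BCL-2 peptide ligand, incubated 60 min with test compound. TR-FRET read at 340 nm excitation, 620/665 nm emission, 60 µs delay, 500 µs integration.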

[2] = tested on: caspase-3 and -7 activities in RS4-11 cells; test: Caspase-3/7 activation (Caspase-Glo 3/7) in RS4-11 cells; assay type: cell-based; settings: Homo sapiens, 3.5 h incubation, read-out: Cas-3/7 (EC50 code)
In short: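 RS4-11 cells exposed to varying compound concentrations for 3.5 h at 37 °C, 5% CO2, then 30 min at r.t. Caspase-Glo 3/7 reagent (luminogenic DEVD substrate) added, 30 min at r.t., luminescence read.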

MOLT-4 cells = test: Cell viability assay (CellTiter-Glo), MOLT-4; assay type: cell-based; settings: Homo sapiens, 72 h, 3 days, read-out: MOLT-4 (CC50 code)
In short: as §1

Chain of BCL-XL (Q07817 whole entry): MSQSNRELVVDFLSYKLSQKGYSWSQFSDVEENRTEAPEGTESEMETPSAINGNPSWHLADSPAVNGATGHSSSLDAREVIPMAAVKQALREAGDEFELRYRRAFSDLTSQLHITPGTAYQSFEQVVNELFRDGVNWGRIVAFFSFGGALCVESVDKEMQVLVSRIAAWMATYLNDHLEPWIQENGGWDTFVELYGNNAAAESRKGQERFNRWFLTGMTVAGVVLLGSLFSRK
Chain of BCL-2 (P10415 whole entry): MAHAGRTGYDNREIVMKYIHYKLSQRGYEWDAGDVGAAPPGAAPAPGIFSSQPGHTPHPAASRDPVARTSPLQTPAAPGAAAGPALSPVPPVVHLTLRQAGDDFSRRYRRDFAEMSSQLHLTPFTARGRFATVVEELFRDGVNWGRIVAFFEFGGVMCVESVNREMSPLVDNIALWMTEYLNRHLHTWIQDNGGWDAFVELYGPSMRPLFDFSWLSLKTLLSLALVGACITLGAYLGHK
Chain of MCL-1 (Q07820 whole entry): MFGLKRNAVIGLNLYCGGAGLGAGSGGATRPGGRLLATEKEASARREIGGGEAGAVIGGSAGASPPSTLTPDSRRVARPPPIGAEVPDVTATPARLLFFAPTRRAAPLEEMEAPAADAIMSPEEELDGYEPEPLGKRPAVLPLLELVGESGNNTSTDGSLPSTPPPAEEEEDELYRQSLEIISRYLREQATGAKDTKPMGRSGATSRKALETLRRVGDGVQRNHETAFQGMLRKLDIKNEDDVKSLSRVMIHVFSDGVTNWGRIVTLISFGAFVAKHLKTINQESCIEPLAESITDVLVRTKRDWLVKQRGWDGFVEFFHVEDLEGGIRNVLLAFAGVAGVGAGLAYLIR

With CN(C)CCNC(=O)c1ccc(CN(C(=O)c2cc(-c3cc4c(cc3C(=O)N3Cc5ccccc5C[C@H]3CN3CCOCC3)OCO4)n3c2CCCC3)c2ccc(O)cc2)cc1 [Compound 8, N-(4-{[2-(dimethylamino)ethyl]carbamoyl}benzyl)-N-(4-hydroxyphenyl)-3-(6-{[(3S)-3-(morpholin-4-ylmethyl)-3,4-dihydroisoquinolin-2(1H)-yl]carbonyl}-1,3-benzodioxol-5-yl)-5,6,7,8-tetrahydroindolizine-1-carboxamide] the CC50 at 3 days [1] was greater than 25000 nM, the IC50 (MCL-1) was greater than 100000 nM and the IC50 (BCL-XL) was no more than 2000 nM. It also gave a CC50 (RS4-11 cells) of no more than 100 nM, an IC50 (BCL-2) of no more than 5 nM and an EC50 [2] of no more than 100 nM. The CC50 (MOLT-4 cells) was greater than 10000 nM.

With CN(C)CCNC(=O)c1cccc(CN(C(=O)c2cc(-c3cc4c(cc3C(=O)N3Cc5ccccc5C[C@H]3CN3CCOCC3)OCO4)n3c2CCCC3)c2ccc(O)cc2)c1 [Compound 6, N-(3-{[2-(dimethylamino)ethyl]carbamoyl}benzyl)-N-(4-hydroxyphenyl)-3-(6-{[(3S)-3-(morpholin-4-ylmethyl)-3,4-dihydroisoquinolin-2(1H)-yl]carbonyl}-1,3-benzodioxol-5-yl)-5,6,7,8-tetrahydroindolizine-1-carboxamide] the CC50 at 3 days [1] was 10000 to 25000 nM, the IC50 (MCL-1) was greater than 100000 nM and the CC50 (RS4-11 cells) was greater than 200 nM. The IC50 (BCL-2) was no more than 5 nM, the EC50 [2] was greater than 250 nM and the CC50 (MOLT-4 cells) was greater than 10000 nM.

Work on NC(=O)c1cccc(CN(C(=O)c2cc(-c3cc4c(cc3C(=O)N3Cc5ccccc5C[C@H]3CN3CCOCC3)OCO4)n3c2CCCC3)c2ccc(O)cc2)c1 [Compound 7, N-(3-carbamoylbenzyl)-N-(4-hydroxyphenyl)-3-(6-{[(3S)-3-(morpholin-4-ylmethyl)-3,4-dihydroisoquinolin-2(1H)-yl]carbonyl}-1,3-benzodioxol-5-yl)-5,6,7,8-tetrahydroindolizine-1-carboxamide] yielded a CC50 at 3 days [1] of no more than 10000 nM, an IC50 (MCL-1) greater than 100000 nM and an IC50 (BCL-XL) of no more than 2000 nM. For the same compound, the CC50 (RS4-11 cells) was 100 to 200 nM, the IC50 (BCL-2) was no more than 5 nM and the EC50 [2] was 100 to 250 nM. For the same compound, the CC50 (MOLT-4 cells) was 2000 to 10000 nM.

In the case of COCCNC(=O)c1cccc(CN(C(=O)c2cc(-c3cc4c(cc3C(=O)N3Cc5ccccc5C[C@H]3CN3CCOCC3)OCO4)n3c2CCCC3)c2ccc(O)cc2)c1 [Compound 2, N-(4-hydroxyphenyl)-N-{3-[(2-methoxyethyl)carbamoyl]benzyl}-3-(6-{[(3S)-3-(morpholin-4-ylmethyl)-3,4-dihydroisoquinolin-2(1H)-yl]carbonyl}-1,3-benzodioxol-5-yl)-5,6,7,8-tetrahydroindolizine-1-carboxamide], the CC50 at 3 days [1] is reported as no more than 10000 nM, the IC50 (MCL-1) is reported as greater than 100000 nM and the CC50 (RS4-11 cells) is reported as 100 to 200 nM. The IC50 (BCL-2) was no more than 5 nM, the EC50 [2] was greater than 250 nM and the CC50 (MOLT-4 cells) was greater than 10000 nM.

For CN1CCN(C(=O)c2ccc(CN(C(=O)c3cc(-c4cc5c(cc4C(=O)N4Cc6ccccc6C[C@H]4CN4CCOCC4)OCO5)n4c3CCCC4)c3ccc(O)cc3)cc2)CC1 [Compound 12, N-(4-hydroxyphenyl)-N-{4-[(4-methylpiperazin-1-yl)carbonyl]benzyl}-3-(6-{[(3S)-3-(morpholin-4-ylmethyl)-3,4-dihydroisoquinolin-2(1H)-yl]carbonyl}-1,3-benzodioxol-5-yl)-5,6,7,8-tetrahydroindolizine-1-carboxamide], the CC50 at 3 days [1] was 10000 to 25000 nM, the IC50 (MCL-1) was greater than 100000 nM and the IC50 (BCL-XL) was no more than 2000 nM. The CC50 (RS4-11 cells) was no more than 100 nM, the IC50 (BCL-2) was 5 to 10 nM and the EC50 [2] was no more than 100 nM. It also gave a CC50 (MOLT-4 cells) greater than 10000 nM.

Work on NC(=O)c1ccc(CN(C(=O)c2cc(-c3cc4c(cc3C(=O)N3Cc5ccccc5C[C@H]3CN3CCOCC3)OCO4)n3c2CCCC3)c2ccc(O)cc2)cc1 [Compound 13, N-(4-carbamoylbenzyl)-N-(4-hydroxyphenyl)-3-(6-{[(3S)-3-(morpholin-4-ylmethyl)-3,4-dihydroisoquinolin-2(1H)-yl]carbonyl}-1,3-benzodioxol-5-yl)-5,6,7,8-tetrahydroindolizine-1-carboxamide] yielded a CC50 at 3 days [1] of 10000 to 25000 nM, an IC50 (MCL-1) greater than 100000 nM and an IC50 (BCL-XL) of no more than 2000 nM. It also gave a CC50 (RS4-11 cells) of no more than 100 nM, an IC50 (BCL-2) of 5 to 10 nM and an EC50 [2] of no more than 100 nM. For the same compound, the CC50 (MOLT-4 cells) was 2000 to 10000 nM.

In the case of COCCNC(=O)c1ccc(CN(C(=O)c2cc(-c3cc4c(cc3C(=O)N3Cc5ccccc5C[C@H]3CN3CCOCC3)OCO4)n3c2CCCC3)c2ccc(O)cc2)cc1 [Compound 1, N-(4-hydroxyphenyl)-N-{4-[(2-methoxyethyl)carbamoyl]benzyl}-3-(6-{[(3S)-3-(morpholin-4-ylmethyl)-3,4-dihydroisoquinolin-2(1H)-yl]carbonyl}-1,3-benzodioxol-5-yl)-5,6,7,8-tetrahydroindolizine-1-carboxamide], the CC50 at 3 days [1] is reported as no more than 10000 nM, the IC50 (MCL-1) is reported as greater than 100000 nM and the IC50 (BCL-XL) is reported as no more than 2000 nM. The CC50 (RS4-11 cells) was no more than 100 nM, the IC50 (BCL-2) was no more than 5 nM and the EC50 [2] was no more than 100 nM. It also gave a CC50 (MOLT-4 cells) of 2000 to 10000 nM.

O=C(c1cc(-c2cc3c(cc2C(=O)N2Cc4ccccc4C[C@H]2CN2CCOCC2)OCO3)n2c1CCCC2)N(Cc1ccncc1)c1ccc(O)cc1 [Compound 9, N-(4-hydroxyphenyl)-3-(6-{[(3S)-3-(morpholin-4-ylmethyl)-3,4-dihydroisoquinolin-2(1H)-yl]carbonyl}-1,3-benzodioxol-5-yl)-N-(pyridin-4-ylmethyl)-5,6,7,8-tetrahydroindolizine-1-carboxamide] gave a CC50 at 3 days [1] of 10000 to 25000 nM, an IC50 (BCL-XL) of 2000 to 4000 nM and a CC50 (RS4-11 cells) of 100 to 200 nM. For the same compound, the IC50 (BCL-2) was no more than 5 nM, the EC50 [2] was 100 to 250 nM and the CC50 (MOLT-4 cells) was 2000 to 10000 nM.

Work on CN1CCN(C(=O)c2cccc(CN(C(=O)c3cc(-c4cc5c(cc4C(=O)N4Cc6ccccc6C[C@H]4CN4CCOCC4)OCO5)n4c3CCCC4)c3ccc(O)cc3)c2)CC1 [Compound 10, N-(4-hydroxyphenyl)-N-{3-[(4-methylpiperazin-1-yl)carbonyl]benzyl}-3-(6-{[(3S)-3-(morpholin-4-ylmethyl)-3,4-dihydroisoquinolin-2(1H)-yl]carbonyl}-1,3-benzodioxol-5-yl)-5,6,7,8-tetrahydroindolizine-1-carboxamide] yielded a CC50 at 3 days [1] of 10000 to 25000 nM, an IC50 (MCL-1) greater than 100000 nM and a CC50 (RS4-11 cells) greater than 200 nM. It also gave an IC50 (BCL-2) of 5 to 10 nM, an EC50 [2] greater than 250 nM and a CC50 (MOLT-4 cells) greater than 10000 nM.

O=C(c1cc(-c2cc3c(cc2C(=O)N2Cc4ccccc4C[C@H]2CN2CCOCC2)OCO3)n2c1CCCC2)N(Cc1c(Cl)ccc(F)c1F)c1ccc(O)cc1 [Compound 35, N-(6-chloro-2,3-difluorobenzyl)-N-(4-hydroxyphenyl)-3-(6-{[(3S)-3-(morpholin-4-ylmethyl)-3,4-dihydroisoquinolin-2(1H)-yl]carbonyl}-1,3-benzodioxol-5-yl)-5,6,7,8-tetrahydroindolizine-1-carboxamide] gave a CC50 at 3 days [1] greater than 25000 nM, an IC50 (BCL-XL) greater than 4000 nM and a CC50 (RS4-11 cells) greater than 200 nM. The IC50 (BCL-2) was 10 to 50 nM, the EC50 [2] was greater than 250 nM and the CC50 (MOLT-4 cells) was no more than 2000 nM.
